The values below come from ChEMBL document CHEMBL1773011, “New and more efficient multivalent glyco-ligands for asialoglycoprotein receptor of mammalian hepatocytes” (Bioorg Med Chem, 2011).

A short description of this test: Displacement of Eu-DTPA labeled ASOR from rat primary hepatocytes Asialoglycoprotein receptor after 20 mins by fluorometric analysis. It is filed as cell-based. The following applies: hepatocyte.
The compound `CC(=O)N[C@@H]1C(OCCCCCCNC(=O)C(CCCCNC(=O)OCc2ccccc2)N(CC(=O)NCCCCCCOC2O[C@H](CO)[C@H](O)[C@H](O)[C@H]2NC(C)=O)CC(=O)NCCCCCCOC2O[C@H](CO)[C@H](O)[C@H](O)[C@H]2NC(C)=O)O[C@@H](CO)[C@@H](O)[C@H]1O` (stereo in doubt) showed an IC50 of 12 nM.

As to `NCCCCC(C(=O)NCCCCCCOC1O[C@H](CO)[C@@H](O[C@@H]2O[C@H](CO)[C@H](O)[C@H](O)[C@H]2O)[C@H](O)[C@H]1O)N(CC(=O)NCCCCCCOC1O[C@H](CO)[C@@H](O[C@@H]2O[C@H](CO)[C@H](O)[C@H](O)[C@H]2O)[C@H](O)[C@H]1O)CC(=O)NCCCCCCOC1O[C@H](CO)[C@@H](O[C@@H]2O[C@H](CO)[C@H](O)[C@H](O)[C@H]2O)[C@H](O)[C@H]1O` (some centres undefined), the half-inhibitory concentration (IC50) is > 1000 nM.

As for `CC(=O)N[C@H]1C(OCCCCCCNC(=O)CNC(=O)CN(CC(=O)NCC(=O)NCCCCCCOC2O[C@H](CO)[C@H](O)[C@H](O)[C@H]2NC(C)=O)C(CCCCNC(=O)OCc2ccccc2)C(=O)NCC(=O)NCCCCCCOC2O[C@H](CO)[C@H](O)[C@H](O)[C@H]2NC(C)=O)O[C@H](CO)[C@H](O)[C@@H]1O` (stereo in doubt), the half-inhibitory concentration (IC50) is 1 nM. That is a single-digit nanomolar value.

As for `CC(=O)NC1C(OCCCCCCNC(=O)CNC(=O)C[C@H](NC(=O)[C@H](CC(=O)NCC(=O)NCCCCCCOC2O[C@@H](CO)[C@@H](O)[C@@H](O)C2NC(C)=O)NC(=O)[C@@H](N)Cc2ccc(O)cc2)C(=O)NCC(=O)NCCCCCCOC2O[C@@H](CO)[C@@H](O)[C@@H](O)C2NC(C)=O)O[C@@H](CO)[C@@H](O)[C@H]1O` (single isomer, unassigned), the IC50 was found to be 20 nM.

Usually IC50 stands for the concentration at which inhibition is half-maximal.
